Experimental data reported in ChEMBL document CHEMBL3885861, “Open TG-GATES”.

Species on record: Rattus norvegicus
Experiment: Open TG-GATES - Regimen: Single
Assay type: toxicity, organism-based, Sprague-Dawley
Set-up: regimen Single, gender Male, age 6 weeks
Settings: in vivo, po, route gavage; for gamma-GTP / ALP / ALT / AST / BUN / CRE / Ca / Cl / DBIL / GLC / IP / LDH / Na / PL / RALB / TBIL / TC / TG / TP: tissue Plasma; for APTT / Bas / Eos / Fbg / Hb / Ht / Lym / MCH / MCHC / MCV / Mono / Neu / PT / Plat / RBC / Ret / WBC: tissue Blood; for KIDNEY_L / KIDNEY_R / KIDNEY_TOTAL: tissue Kidney; for LIVER: tissue Liver

For `CC(=O)N1CCN(c2ccc(OCC3COC(Cn4ccnc4)(c4ccc(Cl)cc4Cl)O3)cc2)CC1` (stereo not given) [KETOCONAZOLE], the gamma-GTP (0 mg/kg, 24 h, dose level Control) was 1.2 IU/L, the TERMINAL_BW (10 mg/kg, 3 h, dose level Low) was 205.2 g and the APTT (10 mg/kg, 3 h, dose level Low) was 20.8 s. The Bas (10 mg/kg, 3 h, dose level Low) was 0%, the Eos (10 mg/kg, 3 h, dose level Low) was 0.8% and the Fbg (10 mg/kg, 3 h, dose level Low) was 286.4 mg/dL. It also gave a Hb (10 mg/kg, 3 h, dose level Low) of 12.9 g/dL, a Ht (10 mg/kg, 3 h, dose level Low) of 38.9% and a Lym (10 mg/kg, 3 h, dose level Low) of 79.2%. It also gave an MCH (10 mg/kg, 3 h, dose level Low) of 21.8 pg, an MCHC (10 mg/kg, 3 h, dose level Low) of 33.1% and an MCV (10 mg/kg, 3 h, dose level Low) of 66.1 fL. It also gave a Mono (10 mg/kg, 3 h, dose level Low) of 2%, a Neu (10 mg/kg, 3 h, dose level Low) of 17.2% and a PT (10 mg/kg, 3 h, dose level Low) of 16.9 s. The Plat (10 mg/kg, 3 h, dose level Low) was 122.3 x10_4/uL, the RBC (10 mg/kg, 3 h, dose level Low) was 590.2 x10_4/ul and the Ret (10 mg/kg, 3 h, dose level Low) was 8.5%. The WBC (10 mg/kg, 3 h, dose level Low) was 81.1 x10_2/uL, the KIDNEY_L (10 mg/kg, 3 h, dose level Low) was 1 g and the KIDNEY_R (10 mg/kg, 3 h, dose level Low) was 1 g. It also gave a KIDNEY_TOTAL (10 mg/kg, 3 h, dose level Low) of 2 g, an LIVER (10 mg/kg, 3 h, dose level Low) of 9.7 g and an ALP (10 mg/kg, 3 h, dose level Low) of 1809.4 IU/L. It also gave an ALT (10 mg/kg, 3 h, dose level Low) of 44.2 IU/L, an AST (10 mg/kg, 3 h, dose level Low) of 74.2 IU/L and a BUN (10 mg/kg, 3 h, dose level Low) of 12.6 mg/dL. The CRE (10 mg/kg, 3 h, dose level Low) was 0.2 mg/dL, the Ca (10 mg/kg, 3 h, dose level Low) was 10.8 mg/dL and the Cl (10 mg/kg, 3 h, dose level Low) was 105.4 meq/L. The DBIL (10 mg/kg, 3 h, dose level Low) was 0 mg/dL, the GLC (10 mg/kg, 3 h, dose level Low) was 183.6 mg/dL and the IP (10 mg/kg, 3 h, dose level Low) was 7.7 mg/dL. For the same compound, the LDH (10 mg/kg, 3 h, dose level Low) was 214.6 IU/L, the Na (10 mg/kg, 3 h, dose level Low) was 140.8 meq/L and the PL (10 mg/kg, 3 h, dose level Low) was 138.4 mg/dL. The RALB (10 mg/kg, 3 h, dose level Low) was 2.9 g/dL, the TBIL (10 mg/kg, 3 h, dose level Low) was 0.014 mg/dL and the TC (10 mg/kg, 3 h, dose level Low) was 76.6 mg/dL. It also gave a TG (10 mg/kg, 3 h, dose level Low) of 69.8 mg/dL, a TP (10 mg/kg, 3 h, dose level Low) of 5.3 g/dL and a gamma-GTP (10 mg/kg, 3 h, dose level Low) of 1.2 IU/L. The TERMINAL_BW (10 mg/kg, 6 h, dose level Low) was 202.4 g, the APTT (10 mg/kg, 6 h, dose level Low) was 20.6 s and the Bas (10 mg/kg, 6 h, dose level Low) was 0%. For the same compound, the Eos (10 mg/kg, 6 h, dose level Low) was 0.6%, the Fbg (10 mg/kg, 6 h, dose level Low) was 294 mg/dL and the Hb (10 mg/kg, 6 h, dose level Low) was 13.2 g/dL. The Ht (10 mg/kg, 6 h, dose level Low) was 39.7%, the Lym (10 mg/kg, 6 h, dose level Low) was 78.8% and the MCH (10 mg/kg, 6 h, dose level Low) was 21 pg. It also gave an MCHC (10 mg/kg, 6 h, dose level Low) of 33.2%, an MCV (10 mg/kg, 6 h, dose level Low) of 63.2 fL and a Mono (10 mg/kg, 6 h, dose level Low) of 1.4%. It also gave a Neu (10 mg/kg, 6 h, dose level Low) of 18.2%, a PT (10 mg/kg, 6 h, dose level Low) of 16.5 s and a Plat (10 mg/kg, 6 h, dose level Low) of 134.3 x10_4/uL. The RBC (10 mg/kg, 6 h, dose level Low) was 628.6 x10_4/ul, the Ret (10 mg/kg, 6 h, dose level Low) was 8.4% and the WBC (10 mg/kg, 6 h, dose level Low) was 66.2 x10_2/uL. For the same compound, the KIDNEY_L (10 mg/kg, 6 h, dose level Low) was 0.9 g, the KIDNEY_R (10 mg/kg, 6 h, dose level Low) was 0.9 g and the KIDNEY_TOTAL (10 mg/kg, 6 h, dose level Low) was 1.8 g. The LIVER (10 mg/kg, 6 h, dose level Low) was 8.6 g, the ALP (10 mg/kg, 6 h, dose level Low) was 1453.2 IU/L and the AST (10 mg/kg, 6 h, dose level Low) was 72.2 IU/L. For the same compound, the BUN (10 mg/kg, 6 h, dose level Low) was 11 mg/dL, the CRE (10 mg/kg, 6 h, dose level Low) was 0.2 mg/dL and the Ca (10 mg/kg, 6 h, dose level Low) was 11 mg/dL. The Cl (10 mg/kg, 6 h, dose level Low) was 105.8 meq/L, the DBIL (10 mg/kg, 6 h, dose level Low) was 0.004 mg/dL and the GLC (10 mg/kg, 6 h, dose level Low) was 172.8 mg/dL. It also gave an IP (10 mg/kg, 6 h, dose level Low) of 9.2 mg/dL, an LDH (10 mg/kg, 6 h, dose level Low) of 238.6 IU/L and a Na (10 mg/kg, 6 h, dose level Low) of 142.2 meq/L. For the same compound, the PL (10 mg/kg, 6 h, dose level Low) was 146.6 mg/dL, the RALB (10 mg/kg, 6 h, dose level Low) was 3.1 g/dL and the TBIL (10 mg/kg, 6 h, dose level Low) was 0.028 mg/dL. It also gave a TC (10 mg/kg, 6 h, dose level Low) of 81.4 mg/dL, a TG (10 mg/kg, 6 h, dose level Low) of 57 mg/dL and a TP (10 mg/kg, 6 h, dose level Low) of 5.5 g/dL. For the same compound, the gamma-GTP (10 mg/kg, 6 h, dose level Low) was 1 IU/L, the TERMINAL_BW (10 mg/kg, 9 h, dose level Low) was 202 g and the APTT (10 mg/kg, 9 h, dose level Low) was 21.2 s. The Bas (10 mg/kg, 9 h, dose level Low) was 0%, the Eos (10 mg/kg, 9 h, dose level Low) was 0.6% and the Fbg (10 mg/kg, 9 h, dose level Low) was 303 mg/dL. For the same compound, the Hb (10 mg/kg, 9 h, dose level Low) was 12.8 g/dL, the Ht (10 mg/kg, 9 h, dose level Low) was 38.6% and the Lym (10 mg/kg, 9 h, dose level Low) was 79.8%. The MCH (10 mg/kg, 9 h, dose level Low) was 20.9 pg, the MCHC (10 mg/kg, 9 h, dose level Low) was 33.3% and the MCV (10 mg/kg, 9 h, dose level Low) was 62.8 fL. The Mono (10 mg/kg, 9 h, dose level Low) was 2%, the Neu (10 mg/kg, 9 h, dose level Low) was 17% and the PT (10 mg/kg, 9 h, dose level Low) was 16.2 s. The Plat (10 mg/kg, 9 h, dose level Low) was 120.8 x10_4/uL, the RBC (10 mg/kg, 9 h, dose level Low) was 614.6 x10_4/ul and the Ret (10 mg/kg, 9 h, dose level Low) was 8.5%. The WBC (10 mg/kg, 9 h, dose level Low) was 64.8 x10_2/uL, the KIDNEY_L (10 mg/kg, 9 h, dose level Low) was 1 g and the KIDNEY_R (10 mg/kg, 9 h, dose level Low) was 1 g. For the same compound, the KIDNEY_TOTAL (10 mg/kg, 9 h, dose level Low) was 1.9 g, the LIVER (10 mg/kg, 9 h, dose level Low) was 8.9 g and the ALP (10 mg/kg, 9 h, dose level Low) was 1290.2 IU/L. It also gave an ALT (10 mg/kg, 9 h, dose level Low) of 33 IU/L, an AST (10 mg/kg, 9 h, dose level Low) of 63.8 IU/L and a BUN (10 mg/kg, 9 h, dose level Low) of 11.2 mg/dL. The CRE (10 mg/kg, 9 h, dose level Low) was 0.1 mg/dL, the Ca (10 mg/kg, 9 h, dose level Low) was 10.6 mg/dL and the Cl (10 mg/kg, 9 h, dose level Low) was 104.8 meq/L. For the same compound, the DBIL (10 mg/kg, 9 h, dose level Low) was 0 mg/dL, the GLC (10 mg/kg, 9 h, dose level Low) was 182.4 mg/dL and the IP (10 mg/kg, 9 h, dose level Low) was 9.8 mg/dL. For the same compound, the LDH (10 mg/kg, 9 h, dose level Low) was 211.4 IU/L, the Na (10 mg/kg, 9 h, dose level Low) was 140.6 meq/L and the PL (10 mg/kg, 9 h, dose level Low) was 137.8 mg/dL. It also gave an RALB (10 mg/kg, 9 h, dose level Low) of 3.1 g/dL, a TBIL (10 mg/kg, 9 h, dose level Low) of 0.018 mg/dL and a TC (10 mg/kg, 9 h, dose level Low) of 80.2 mg/dL. It also gave a TG (10 mg/kg, 9 h, dose level Low) of 52.8 mg/dL, a TP (10 mg/kg, 9 h, dose level Low) of 5.6 g/dL and a gamma-GTP (10 mg/kg, 9 h, dose level Low) of 1.2 IU/L. For the same compound, the TERMINAL_BW (10 mg/kg, 24 h, dose level Low) was 212.3 g, the APTT (10 mg/kg, 24 h, dose level Low) was 20.9 s and the Bas (10 mg/kg, 24 h, dose level Low) was 0%. For the same compound, the Eos (10 mg/kg, 24 h, dose level Low) was 1%, the Fbg (10 mg/kg, 24 h, dose level Low) was 300 mg/dL and the Hb (10 mg/kg, 24 h, dose level Low) was 13 g/dL. The Ht (10 mg/kg, 24 h, dose level Low) was 38.5%, the Lym (10 mg/kg, 24 h, dose level Low) was 81% and the MCH (10 mg/kg, 24 h, dose level Low) was 21.3 pg. It also gave an MCV (10 mg/kg, 24 h, dose level Low) of 63.4 fL, a Mono (10 mg/kg, 24 h, dose level Low) of 1.8% and a Neu (10 mg/kg, 24 h, dose level Low) of 15.6%. The PT (10 mg/kg, 24 h, dose level Low) was 16.5 s, the Plat (10 mg/kg, 24 h, dose level Low) was 129.6 x10_4/uL and the RBC (10 mg/kg, 24 h, dose level Low) was 608 x10_4/ul. The Ret (10 mg/kg, 24 h, dose level Low) was 7.8%, the WBC (10 mg/kg, 24 h, dose level Low) was 74 x10_2/uL and the KIDNEY_L (10 mg/kg, 24 h, dose level Low) was 0.9 g. It also gave a KIDNEY_R (10 mg/kg, 24 h, dose level Low) of 0.9 g, a KIDNEY_TOTAL (10 mg/kg, 24 h, dose level Low) of 1.9 g and an LIVER (10 mg/kg, 24 h, dose level Low) of 10 g. It also gave an ALP (10 mg/kg, 24 h, dose level Low) of 1553.2 IU/L, an ALT (10 mg/kg, 24 h, dose level Low) of 44.2 IU/L and an AST (10 mg/kg, 24 h, dose level Low) of 71 IU/L. The BUN (10 mg/kg, 24 h, dose level Low) was 16 mg/dL, the CRE (10 mg/kg, 24 h, dose level Low) was 0.2 mg/dL and the Ca (10 mg/kg, 24 h, dose level Low) was 10.7 mg/dL. The Cl (10 mg/kg, 24 h, dose level Low) was 107.2 meq/L, the DBIL (10 mg/kg, 24 h, dose level Low) was 0 mg/dL and the GLC (10 mg/kg, 24 h, dose level Low) was 176.6 mg/dL. It also gave an IP (10 mg/kg, 24 h, dose level Low) of 7.1 mg/dL, an LDH (10 mg/kg, 24 h, dose level Low) of 209 IU/L and a Na (10 mg/kg, 24 h, dose level Low) of 141.6 meq/L. The PL (10 mg/kg, 24 h, dose level Low) was 140 mg/dL, the RALB (10 mg/kg, 24 h, dose level Low) was 3.1 g/dL and the TBIL (10 mg/kg, 24 h, dose level Low) was 0.006 mg/dL. For the same compound, the TC (10 mg/kg, 24 h, dose level Low) was 74 mg/dL.
